Measurements taken from US20220348590A1, “CYCLOOXYGENASE-2 INHIBITORS AND USES THEREOF” (The Board Institute, Inc., priority 2019, published 2022).
Read-outs that look alike come from different tables or passages of the source.

Biological target: T1, human recombinant COX2 (hCOX2) (UniProt P35354)
T1 sequence (P35354 1-604): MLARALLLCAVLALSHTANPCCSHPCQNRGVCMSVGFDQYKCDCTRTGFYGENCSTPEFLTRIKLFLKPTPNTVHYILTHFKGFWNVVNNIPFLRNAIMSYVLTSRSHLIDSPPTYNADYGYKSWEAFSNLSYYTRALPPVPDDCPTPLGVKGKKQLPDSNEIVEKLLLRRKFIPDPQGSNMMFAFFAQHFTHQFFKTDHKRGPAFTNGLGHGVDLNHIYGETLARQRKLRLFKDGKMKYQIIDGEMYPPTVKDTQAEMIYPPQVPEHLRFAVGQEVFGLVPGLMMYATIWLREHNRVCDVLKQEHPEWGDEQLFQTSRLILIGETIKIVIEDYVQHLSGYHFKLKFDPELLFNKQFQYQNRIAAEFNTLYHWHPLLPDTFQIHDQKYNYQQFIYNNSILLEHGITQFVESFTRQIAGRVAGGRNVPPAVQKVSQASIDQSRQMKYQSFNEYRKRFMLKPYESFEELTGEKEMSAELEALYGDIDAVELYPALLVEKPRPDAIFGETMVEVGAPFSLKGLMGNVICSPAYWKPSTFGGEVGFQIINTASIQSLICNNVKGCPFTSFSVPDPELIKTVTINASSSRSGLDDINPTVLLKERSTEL
Experiment: LCMS-based COX2 enzymatic inhibition assay (PGE2 quantification)
Assay type: biochemical
Parameters: COX2 2 minutes pge2/pge2d4 area ratio Avg; other: 2 minutes; readout pge2/pge2d4 area ratio; average; COX2 2 minutes pge2/pge2d4 area ratio Avg; LLE; average LLE; COX2 2 minutes pge2 area (counts) Avg; readout pge2 area (counts); other: 2 min; "ovine COX2 (oCOX2), human recombinant COX2 (hCOX2)"
Details: for COX2 2 minutes pge2/pge2d4 area ratio Avg. LLE / COX2 2 minutes pge2 area (counts) Avg. LLE / COX2 10 minutes pge2 area (counts) Avg. LLE: average LLE; for IC50: average
Outline: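 Ovine COX-1 (0.1 μg) or human recombinant COX2 (0.2 μg) in 100 mM Tris.HCl pH 8.0 with hematin and epinephrine, preincubated with inhibitor 10 min at 37 °C. Reaction with 5 μM arachidonic acid stopped after 2 min with HCl; PGE2 quantified by LC-MS-MS. IC50 from 12 concentrations in triplicate.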

[1] = 2 minutes, readout pge2/pge2d4 area ratio
[2] = 2 minutes, readout pge2/pge2d4 area ratio, read-out: COX2 2 minutes pge2/pge2d4 area ratio Avg. IC50
[3] = 2 minutes, readout pge2 area (counts)
[4] = 2 minutes, readout pge2 area (counts), read-out: COX2 2 minutes pge2 area (counts) Avg. IC50
[5] = 10 minutes, readout pge2 area (counts)
[6] = 10 minutes, readout pge2 area (counts), read-out: COX2 10 minutes pge2 area (counts) Avg. IC50
[7] = read-out: COX2 2 minutes pge2/pge2d4 area ratio Avg. IC50 (microM), 2 minutes, readout pge2/pge2d4 area ratio

SMILES	COX2 2 minutes pge2/pge2d4 area ratio Avg. LLE [1]	IC50 [2] [µM]	COX2 2 minutes pge2 area (counts) Avg. LLE [3]	IC50 [4] [µM]	COX2 10 minutes pge2 area (counts) Avg. LLE [5]	IC50 [6] [µM]	IC50 [7] [µM]	IC50 (read-out: COX2 2 minutes pge2/pge2d4 area ratio Avg. IC50 (microM), 2 minutes, readout pge2/pge2d4 area ratio, 2 min) [µM]
CS(=O)(=O)c1ccc(-c2cncc(NCc3ccns3)n2)cc1 [Compound 142]	5.555	0.221	5.576	0.211				
CS(=O)(=O)c1ccc(-c2cnc3ncn(Cc4cccs4)c3n2)cc1 [Compound 210]	2.8514	1.41	2.964	1.17	3.939	0.112		
CS(=O)(=O)c1ccc(-n2ccc3ccc(/C(=N/O)c4cccs4)nc32)cc1 [Compound 195]		0.885		0.969				
COc1ncc(NCc2nccs2)nc1-c1ccc(S(C)(=O)=O)cc1 [Compound 107]	4.932	0.0933	4.948	0.0881				
CS(=O)(=O)c1ccc(-c2cncc(N3CCC4(CCCC4)CC3)n2)cc1 [Compound 319]							5.2	
CS(=O)(=O)c1ccc(-c2cc(OCc3cccs3)cnn2)cc1 [Compound 234]	3.137	2.45	3.14	2.42				
CS(=O)(=O)c1ccc(-n2cnc3ccc(NCc4cccs4)nc32)cc1 [Compound 184]		0.57		0.457				
CS(=O)(=O)c1ccc(-c2nc(NCc3cccs3)no2)cc1 [Compound 327]							5.2	
CS(=O)(=O)c1ccc(-c2cccc(C3CC3c3ccoc3)n2)cc1 (single isomer, unassigned) [Compound 314, 2-[2-(furan-3-yl)cyclopropyl]-6-(4-methanesulfonylphenyl)pyridine]			2.024					5.2
CS(=O)(=O)c1ccc(-c2cncc(SCc3ccon3)n2)cc1 [Compound 148]	5.484	0.268	5.518	0.255				
COc1ccc(NCc2ccco2)nc1-c1ccc(S(C)(=O)=O)cc1 [Compound 149]	4.057	0.272	4.033	0.285				
CS(=O)(=O)c1ccc(-c2cncc(OC[C@H]3CCCS3)n2)cc1 (single isomer, unassigned) [Compound 198]	4.116	0.964	4.04	1.23				
CS(=O)(=O)c1ccc(-c2cncc(NCc3cccs3)n2)c(O)c1 [Compound 137]	4.977	0.197	4.936	0.215				
CS(=O)(=O)c1ccc(-c2cncc(NCc3ccno3)n2)cc1 [Compound 202]	5.815	1.05	5.757	1.19				
COc1ncc(NCc2ccon2)nc1-c1ccc(S(C)(=O)=O)cc1 [Compound 152]	6.031	0.297	6.197	0.174				
CS(=O)(=O)c1ccc(-c2cccc(C(=O)C(=O)c3cccs3)n2)cc1 [Compound 190]	3.528	0.711	3.498	0.774				
COCCOc1ncc(NCc2cccs2)nc1-c1ccc(S(C)(=O)=O)cc1 [Compound 133]	4.558	0.167	4.582	0.126				
CS(=O)(=O)c1ccc(-c2cccc(NCc3cnoc3)n2)cc1 [Compound 136]	5.1378	0.196	5.206	0.161				
CS(=O)(=O)c1ccc(-c2cncc(NC3CCCCC3)n2)cc1 [Compound 180]	3.95	0.555	3.961	0.514				
C[C@H](Nc1cccc(-c2ccc(S(C)(=O)=O)cc2)n1)c1ccoc1 (single isomer, unassigned) [Compound 241]	2.087	2.96	1.8776	4.36				

SMILES	COX2 2 minutes pge2/pge2d4 area ratio Avg. LLE [1]	IC50 [2] [µM]	COX2 2 minutes pge2 area (counts) Avg. LLE [3]	IC50 [4] [µM]	COX2 10 minutes pge2 area (counts) Avg. LLE [5]	IC50 [6] [µM]	IC50 [7] [µM]	IC50 (read-out: COX2 2 minutes pge2/pge2d4 area ratio Avg. IC50 (microM), 2 minutes, readout pge2/pge2d4 area ratio, 2 min) [µM]
CS(=O)(=O)c1ccc(-n2ccc3ccc([C@H](O)c4cccs4)nc32)cc1 (single isomer, unassigned) [Compound 168]		0.437		0.425				
CS(=O)(=O)c1ccc(-c2cc(OCc3cccs3)ncn2)cc1 [Compound 318]							5.2	
CS(=O)(=O)c1ccc(-c2cnnc(OCc3cccs3)c2)cc1 [Compound 321]							5.2	
COc1ncc(NCc2cccnc2)nc1-c1ccc(S(C)(=O)=O)cc1 [Compound 166]	5.259	0.427	5.249	0.38				
CS(=O)(=O)c1ccc(-c2ccnc(NCc3ccoc3)c2)cc1 [Compound 290]							5.2	
CS(=O)(=O)c1ccc(-c2cc3c(cn2)cnn3Cc2cccs2)cc1 [Compound 301]							5.2	
CS(=O)(=O)c1ccc(-c2cccc(NCc3cocn3)n2)cc1 [Compound 254]	3.075	3.93						
CS(=O)(=O)c1ccc(-c2cncc(OCc3ccccc3)n2)cc1 [Compound 172]	4.174	0.447	4.01	0.52				
CN1CC[C@@H](CNc2cncc(-c3ccc(S(C)(=O)=O)cc3)n2)C1 [Compound 306]			4.594				5.2	
COc1ccc(-c2ccc(S(C)(=O)=O)nc2)nc1NCc1cccs1 [Compound 158]	3.956	0.359	3.972	0.349				
CS(=O)(=O)c1ccc(-c2cccc(NCc3nccs3)n2)cc1 [Compound 105]	3.99	0.0915	3.918	0.105				
CS(=O)(=O)c1ccc(-c2cncc(OCc3ccc(Cl)o3)n2)cc1 [Compound 212]	2.9422	1.47	2.889	1.66				
CS(=O)(=O)c1ccc(-c2nc(NCc3cccs3)cnc2C(=O)O)cc1 [Compound 305]							5.2	
COc1nc(NCc2cccs2)cc(-c2ccc(S(C)(=O)=O)cc2)n1 [Compound 156]	3.208	0.332	3.204	0.327	4.189	0.0355		
CS(=O)(=O)c1ccc(-c2cncc(SC[C@@H]3CCCO3)n2)cc1 (single isomer, unassigned) [Compound 186]	4.315	0.627	4.316	0.616				
Cn1ccc(CNc2cccc(-c3ccc(S(C)(=O)=O)cc3)n2)n1 [Compound 188]	4.275	0.652	4.373	0.546				
CS(=O)(=O)c1ccc(-c2cccc(C3CC3c3ccoc3)n2)cc1 (single isomer, unassigned) [Compound 177, 2-[2-(furan-3-yl)cyclopropyl]-6-(4-methanesulfonylphenyl)pyridine]	3.065	0.534	2.982	0.635				
CS(=O)(=O)c1ccc(-c2cccc(C(=O)Nc3cccs3)n2)cc1 [Compound 281]	2.264	5.2						
CS(=O)(=O)c1ccc(-c2cc(NCc3ccco3)ncn2)cc1 [Compound 277]		5.2						
